Reference: US9446087B2, “Anti-resorptive and bone building dietary supplements and methods of use” (priority 2006, dated 2016)
Values joined by “and” are separate entries in the source; they are usually repeats but may differ in a detail not shown here. Identical values can stand only once.

Experiments:
[1] = system: BMP-2 protein; assay: BMP-2 Protein Expression Assay (Hu09 cells, ELISA); assay type: cell-based
Procedure: The cells are treated with different proteasome inhibitors for 24 hours. After incubation, the conditioned media is transferred into microcentrifuge tubes and centrifuged at 14,000 rpm for 2-3 minutes to remove cellular debris. The concentration of BMP-2 protein in the supernatant is then determined using the standard BMP-2 Elisa Kit (R&D ELISA KIT DBP200). Recombinant hBMP-2 (R&D) is used as a standard.

[2] = system: BMP-2 promoter; assay: BMP2 Promoter assay (2T3-BMP2-Luciferase cells, luciferase); assay type: cell-based, murine
[3] = system: BMP-2; assay: BMP-2 Gene Expression Assay (MG-63 cells, real time PCR); assay type: cell-based, human
Procedure: It is also possible to test for BMP-2 gene expression and protein expression using assays similar to those described above for testing BMP-2 promoter activity. In particular, for gene expression, the human osteosarcoma cell line, MG-63 (ATCC# CRL-1427), is maintained in phenol-red containing MEM (as recommended by ATCC) at 37° C. and 5% CO2. Twenty-four hours prior to experimentation, 3×10^5 cells are seeded in 12-well plates in phenol-red free MEM. […] After an overnight incubation, RNA is extracted using conventional trizol/guanidine isothiocyanate based lysis. The isolated RNA was digested with RNase-free DNase I to remove any DNA contamination and then reverse transcribed to cDNA using random hexamer as well as oligo(dT) primers according to the manufacturer's instructions (Stratagene). Quantitative real time PCR is performed using FAM-labeled specific primers for BMP-2 and HEX-labeled specific primers for 18S rRNA (Invitrogen). All reactions are carried out in triplicate and the relative amount of mRNAs in treated versus untreated samples is calculated using the comparative CT method established by Applied Biosystems (2001). Gene expression changes of 2-fold or greater are considered significant.

[4] = system: Neonatal murine calvaria; assay: Calvarial Assay to Measure Bone Growth; assay type: cell-based, Swiss white mice
Procedure: Neonatal murine calvaria from 4 day old Swiss white mice are excised, placed into BGJ media (Sigma), and cut in half along the midline suture. One milliliter of BGJ media supplemented with 0.1% bovine serum albumin (BSA) is added to each well of a 12 well tissue culture plate (Costar) to which the relevant factors or vehicles are added. Each half calvaria is placed on a stainless steel grid in the above media at the media/air interface. Usually 4 bones per experimental group are used. […] Factors to be tested are added on Day 0 (the day of dissection) and media is changed at 24 and 96 hours (if a 7 day assay is required). Calvaria are maintained in humidified air (5% Co2), at 37° C. Following the period of incubation, the calvaria are then removed and fixed overnight in 10% formalin. The calvaria are then decalcified in 14% EDTA overnight and are then embedded in paraffin wax. Sections are then cut, using a standard microtome, along the midline suture to reveal the coronal suture and the region posterior to this suture. Four micrometer sections were taken initially and at two sequential […] depths. Sections are placed on coated glass slides (Superfrost plus, Fisher Scientific, Pittsburgh, Pa.) and stained with hematoxylin and eosin. The total and new bone area (expressed as mm^2), suture thickness (mm), and number of cells lining the bone surface are determined in the section posterior to the […] suture. Histomorphometric analysis is performed using the Osteomeasure System (Osteometrics INC, Atlanta, Ga.).

O=c1c(O)c(-c2ccc(O)c(O)c2)oc2cc(O)cc(O)c12 [Q, Quercetin]
BMP-2 Protein Expression ([1]; 1 μg/ml): 2.0 FOLD
BMP-2 Protein Expression ([1]; 10 μg/ml): 4.6 FOLD
BMP-2 Protein Expression ([1]; 100 μg/ml): 2.2 FOLD
BMP2 Promoter assay (ratio to control) ([2]; 0.05 μg/ml): 1.00 FOLD
BMP2 Promoter assay (ratio to control) ([2]; 0.1 μg/ml): 1.10 FOLD
BMP2 Promoter assay (ratio to control) ([2]; 0.2 μg/ml): 1.10 FOLD
BMP2 Promoter assay (ratio to control) ([2]; 0.4 μg/ml): 1.00 FOLD
BMP2 Promoter assay (ratio to control) ([2]; 0.8 μg/ml): 1.15 FOLD
BMP2 Promoter assay (ratio to control) ([2]; 1.6 μg/ml): 1.30 FOLD
BMP2 Promoter assay (ratio to control) ([2]; 3.2 μg/ml): 1.80 FOLD
BMP2 Promoter assay (ratio to control) ([2]; 6.3 μg/ml): 2.30 FOLD
BMP2 Promoter assay (ratio to control) ([2]; 12.5 μg/ml): 2.90 FOLD
BMP2 Promoter assay (ratio to control) ([2]; 25 μg/ml): 3.60 FOLD
BMP2 Promoter assay (ratio to control) ([2]; 50 μg/ml): 4.80 FOLD
BMP2 Promoter assay (ratio to control) ([2]; 100 μg/ml): 5.20 FOLD
BMP-2 Expression (fold change) ([3]; 0.1 μg/ml): No change (−1.06) fold change
BMP-2 Expression (fold change) ([3]; 1 μg/ml): 2 fold change and 2.03 fold change
BMP-2 Expression (fold change) ([3]; 5 μg/ml): 2.51 ± 0.14 fold change
Fold Change in Gene Expression ([3]; 10 μg/ml): 2.6 × increase
BMP-2 Expression (fold change) ([3]; 20 μg/ml): 4.61 ± 0.07 fold change
BMP-2 Expression (fold change) ([3]; 100 μg/ml): 14 fold change
Calvarial Assay Results - Bone Formation Stimulated by Extract Combinations ([4]; 0.2 ug/ml): 6.90 ± 0.56 mm^2 × 10^−3
Calvarial Assay Results - Bone Formation Stimulated by Extract Combinations ([4]; 0.7 ug/ml): 10.30 ± 0.78^a mm^2 × 10^−3
Calvarial Assay Results - Bone Formation Stimulated by Extract Combinations ([4]; 1 ug/ml): 13.70 ± 3.20^a mm^2 × 10^−3
Calvarial Assay Results- Bone formation ([4]; 1 μg/ml): 7.57 ± 1.52 mm^2 × 10^−3
Calvarial Assay Results - Bone Formation Stimulated by Extract Combinations ([4]; 8.3 ug/ml): 0.10 ± 0.10 mm^2 × 10^−3
Calvarial Assay Results- Bone formation ([4]; 10 μg/ml): 13.41 ± 2.50^a mm^2 × 10^−3
Calvarial Assay Results - Bone Formation Stimulated by Extract Combinations ([4]; 14.3 ug/ml): 0.10 ± 0.12 mm^2 × 10^−3
Calvarial Assay Results- Bone formation ([4]; 100 μg/ml): 13.55 ± 1.47^a mm^2 × 10^−3

CCC(C)(C)C(=O)O[C@H]1C[C@@H](C)C=C2C=C[C@H](C)[C@H](CC[C@@H]3C[C@@H](O)CC(=O)O3)[C@H]21 [Simvastatin]
Calvarial Assay Results- Bone formation ([4]; 0.25 μM, positive control): 7.45 ± 1.34 mm^2 × 10^−3
Calvarial Assay Results- Bone formation ([4]; 0.5 μM, positive control): 9.50 ± 1.00 mm^2 × 10^−3
Calvarial Assay Results- Bone formation ([4]; 1 μM, positive control): 12.5 ± 1.00 mm^2 × 10^−3
